Test results from EP0431323A1, “Antitumor antibiotic BU-3983T” (priority 1989, dated 1991).
Numbered stars: 1 amine (or outer) side, 2 acyl side, 3 side chain; on linkers, the order of the positions; unused ones are H or OH. Bridge positions count the residues as written; N and C are the ends. Square brackets hold non-standard residues; d marks the D form. Peptide text beside a SMILES is read from it. I, II: the chains in the order shown. * marks the point of attachment. Actinocin(9to1) = Cc1c2oc3c(C)ccc(C(=O)[*:1])c3nc-2c(C(=O)[*:2])c(N)c1=O; Leu(3R-OH,Nα-propionyl) = CCC(=O)N[C@H](C(=O)*)[C@H](O)C(C)C; X1 = CC(C)[C@@H](O[*:3])[C@H](N[*:1])C(=O)[*:2]; NMeT = CN[C@H](C(=O)O)[C@@H](C)O; dPhLac = O=C(O)[C@H](O)Cc1ccccc1; NMeV = CN[C@H](C(=O)O)C(C)C; NMeA = CN[C@@H](C)C(=O)O; NMeDha = C=C(NC)C(=O)O; Sar = CNCC(=O)O

Tests used:
[1] = test system: DNA synthesis in B16-F10 melanoma cells; assay: Inhibition of macromolecule synthesis: DNA (3H-thymidine incorporation); format: cell-based, murine; settings: Mus musculus, 4.5 hours + 30 minutes label, read-out: IC₅₀ DNA
Procedure: (§2) B16-F10 cells (10⁵ cells/ml) were incubated with test materials at 37°C for 4.5 hours (for DNA synthesis) or 4 hours (for RNA and protein syntheses). Labelled precursor, ³H-thymidine, ¹⁴C-uridine or ³H-leucine was added to the culture and further incubated for 30 minutes (for DNA) or 60 minutes (for RNA and protein). After washing with chilled 5% trichloroacetic acid solution, the radioactivity incorporated into the acid-insoluble fraction of the tumor cells was determined by a liquid scintillation counter. Actinomycin D was used as a reference compound.

[2] = test system: RNA synthesis in B16-F10 melanoma cells; assay: Inhibition of macromolecule synthesis: RNA (14C-uridine incorporation); format: cell-based, murine; settings: Mus musculus, 4 hours + 60 minutes label, read-out: IC₅₀ RNA
Procedure: as §2

[3] = test system: Protein synthesis in B16-F10 melanoma cells; assay: Inhibition of macromolecule synthesis: protein (3H-leucine incorporation); format: cell-based, murine; settings: Mus musculus, 4 hours + 60 minutes label, read-out: IC₅₀ Protein
Procedure: as §2

platelet aggregation = settings: Fujioka, et al, J. Org. Chem. 53, 2820 (1988); cited from earlier work
[4] = Fujioka, et al, J. Org. Chem. 53, 2820 (1988); cited from earlier work
P388 leukemia = assay: In vivo antitumor activity in tumor-bearing mice, P388 leukemia (ip); settings: P388 leukemia ip, CDF₁ mice, Q1D x 1; for T/C: significant if T/C ≧ 125%
Procedure: (§1) In vivo antitumor activity of BU-3983T was examined using tumor-bearing mice. Male BDF₁ mice were intraperitoneally inoculated with 0.5 ml of 10% melanotic melanoma B16 brei, and female CDF₁ mice were intraperitoneally inoculated with 0.4 ml of diluted ascitic fluid containing 10⁶ lymphocytic leukemia P388 cells or 10⁵ lymphoid leukemia L1210 cells. Mitomycin C was used as a reference compound. Test compounds were intraperitoneally administered to the mice by the following treatment schedules: once a day on day 1 only (Q1D x 1), on days 1, 5 and 9 (Q4D x 3) or on days 1 to 9 (Q1D x 9). […]

B16 melanoma = assay: In vivo antitumor activity in tumor-bearing mice, B16 melanoma (ip); settings: B16 melanoma ip, BDF₁ mice, Q4D x 3; for T/C: significant if T/C ≧ 125%
Procedure: as §1

L1210 leukemia = assay: In vivo antitumor activity in tumor-bearing mice, L1210 leukemia (ip); settings: L1210 leukemia ip, CDF₁ mice, Q1D x 1; for T/C: significant if T/C ≧ 125%
Procedure: as §1

[5] = test system: Gram-positive microorganisms; settings: Maehr, et al, J. Antibiotics, 39, 17 (1986); cited from earlier work
Gram-negative bacteria = settings: Sheehan et al, J. Am. Chem. Soc., 90, 462 (1968); cited from earlier work
Gram-positive organism = settings: Sheehan et al, J. Am. Chem. Soc., 90, 462 (1968); cited from earlier work

## Cc1c2oc3c(C)ccc(C(=O)N[C@@H]4C(=O)N[C@H](C(C)C)C(=O)N5CCC[C@H]5C(=O)N(C)CC(=O)N(C)[C@@H](C(C)C)C(=O)O[C@@H]4C)c3nc-2c(C(=O)N[C@@H]2C(=O)N[C@H](C(C)C)C(=O)N3CCC[C@H]3C(=O)N(C)CC(=O)N(C)[C@@H](C(C)C)C(=O)O[C@@H]2C)c(N)c1=O [Actinomycin D, reference compound] (I: T[dV]P[Sar][NMeV] / II: T[dV]P[Sar][NMeV]; ester I:1-I:C, II:1-II:C; linker I:N-II:N via Actinocin(9to1))
[1]
  IC50: 1.3 µg/mL
[2]
  IC50: 0.07 µg/mL
[3]
  IC50: > 30 µg/mL

## C=C1C(=O)N[C@@H](C)C(=O)N(C)[C@@H](C)C(=O)N[C@@H]([C@H](OC(=O)[C@@H](NC(=O)CC)[C@H](O)C(C)C)C(C)C)C(=O)N(C)[C@@H]([C@@H](C)OC)C(=O)O[C@H](C(C)C)[C@H](NC(C)=O)C(=O)O[C@H](Cc2ccccc2)C(=O)N1C [FR900359] (Ac-[X1][dPhLac][NMeDha]A[NMeA][X1](Leu(3R-OH,Nα-propionyl))[NMeT](Me); ester 1-C)
Platelet aggregation
  inhibition of platelet aggregation: inhibition of platelet aggregation
[4]
  decrease of blood pressure: decrease of blood pressure

## CO[C@@]12[C@H](COC(N)=O)C3=C(C(=O)C(C)=C(N)C3=O)N1C[C@@H]1N[C@@H]12 [Mitomycin C, reference compound]
P388 leukemia; 0.25 mg/kg/day ip
  Body weight change on day 4: +1.0 g
  MST (Median survival time): 11.5 days
  T/C: 115%
P388 leukemia; 0.5 mg/kg/day ip
  Body weight change on day 4: +1.5 g
  MST (Median survival time): 13.0 days
  T/C: 130*² %
P388 leukemia; 1 mg/kg/day ip
  Body weight change on day 4: +2.0 g
  MST (Median survival time): 14.0 days
  T/C: 140*² %
P388 leukemia; 2 mg/kg/day ip
  Body weight change on day 4: +0.5 g
  MST (Median survival time): 15.5 days
  T/C: 155*² %
P388 leukemia; 4 mg/kg/day ip
  Body weight change on day 4: -0.8 g
  MST (Median survival time): 16.5 days
  T/C: 165*² %
B16 melanoma; 0.25 mg/kg/day ip
  Body weight change on day 5: +0.8 g
  MST (Median survival time): 15.5 days
  T/C: 119%
B16 melanoma; 0.5 mg/kg/day ip
  Body weight change on day 5: +0.6 g
  MST (Median survival time): 18.0 days
  T/C: 138*² %
B16 melanoma; 1 mg/kg/day ip
  Body weight change on day 5: +0.8 g
  MST (Median survival time): 22.0 days
  T/C: 169*² %
B16 melanoma; 2 mg/kg/day ip
  Body weight change on day 5: +0.5 g
  MST (Median survival time): 27.5 days
  T/C: 212*² %
L1210 leukemia; 0.5 mg/kg/day ip
  Body weight change on day 4: +1.5 g
  MST (Median survival time): 10.0 days
  T/C: 125*² %
L1210 leukemia; 1 mg/kg/day ip
  Body weight change on day 4: +1.5 g
  MST (Median survival time): 10.0 days
  T/C: 125*² %
L1210 leukemia; 2 mg/kg/day ip
  Body weight change on day 4: +1.0 g
  MST (Median survival time): 10.5 days
  T/C: 131*² %
L1210 leukemia; 4 mg/kg/day ip
  Body weight change on day 4: +0.5 g
  MST (Median survival time): 11.0 days
  T/C: 138*² %
L1210 leukemia; 8 mg/kg/day ip
  Body weight change on day 4: -0.3 g
  MST (Median survival time): 12.5 days
  T/C: 156*² %

## C/C=C(\C)C(=O)[C@@H](/C=C(\C)[C@@H]1O[C@@](O)([C@](O)(CC)C(=O)N[C@@H]2C(=O)N3NCCC[C@H]3C(=O)N(O)[C@H](COC)C(=O)N(C)[C@H](C)C(=O)N3NCCC[C@@H]3C(=O)N[C@@H]([C@H](C)O)C(=O)O[C@@H]2C(C)C)CC[C@H]1C)CC [azinothricin]
[5]
  activity against Gram-positive microorganisms: primarily active

## Telomycin
Gram-negative bacteria
  effect against most Gram-negative bacteria: little or no effect
Gram-positive organism
  activity against Gram-positive organism: active
